Experiments:
[1] = Non-nucleoside inhibition of NS5B polymerase in HCV genotype 1a by Taqman probe based RT-PCR analysis
[2] = Non-nucleoside inhibition of NS5B polymerase in HCV genotype 1b by Taqman probe based RT-PCR analysis
[3] = Non-nucleoside inhibition of NS5B polymerase in HCV genotype 2a by Taqman probe based RT-PCR analysis
[4] = Non-nucleoside inhibition of NS5B polymerase in HCV genotype 2b by Taqman probe based RT-PCR analysis
[5] = Non-nucleoside inhibition of NS5B polymerase in HCV genotype 3a by Taqman probe based RT-PCR analysis
[6] = Non-nucleoside inhibition of NS5B polymerase in HCV genotype 4a by Taqman probe based RT-PCR analysis
[7] = Non-nucleoside inhibition of NS5B polymerase C316Y mutant in HCV genotype 1a by Taqman probe based RT-PCR analysis
[8] = Non-nucleoside inhibition of NS5B polymerase S365A mutant in HCV genotype 1a by Taqman probe based RT-PCR analysis

Row | Compound | EC50 [1] [nM] | EC50 [2] [nM] | EC50 [3] [nM] | EC50 [4] [nM] | EC50 [5] [nM] | EC50 [6] [nM] | EC50 [7] [nM] | EC50 [8] [nM]
1 | CNC(=O)c1c(-c2ccc(F)cc2)oc2cc(N(C)S(C)(=O)=O)c(-c3ccc4nc(COC)n(Cc5ccc(F)cc5)c(=O)c4c3)cc12 [US9364482, 53] | 2.1 | 2.4 | 8.2 | 3.7 | 0.8 | 0.9 | 4.1 | 19
2 | CNC(=O)c1c(-c2ccc(F)cc2)oc2cc(N(C)S(C)(=O)=O)c(-c3ccc4nnn(C(C)c5ccc(F)cc5)c(=O)c4c3)cc12 (configuration not stated) | 2.8 | 2.9 | 9.3 | 5.8 | 0.8 | 1.1 | 15 | 277
3 | CNC(=O)c1c(-c2ccc(F)cc2)oc2cc(N(C)S(C)(=O)=O)c(-c3ccc4nnn(Cc5ccc(F)cc5)c(=O)c4c3)cc12 [US9364482, 44] | 1.7 | 3.9 | 13 | 4 | 0.8 | 1.4 | 12 | 76
4 | CNC(=O)c1c(-c2ccc(F)cc2)oc2cc(N(C)S(C)(=O)=O)c(-c3ccc4nnn([C@H](COC)c5ccc(F)cc5)c(=O)c4c3)cc12 [US9364482, 39] | 1.2 | 2.6 | 12 | 3.9 | 1 | 0.7 | 18 | 68
5 | CNC(=O)c1c(-c2ccc(F)cc2)oc2cc(N(C)S(C)(=O)=O)c(-c3cc4c(=O)n(Cc5ccc(F)cc5)nnc4cc3Cl)cc12 [US9364482, 73] | 3 | 5.5 | 15 | 8.8 | 1.5 | 1 | 12 | 42
6 | CNC(=O)c1c(-c2ccc(F)cc2)oc2cc(N(C)S(C)(=O)=O)c(-c3cc4c(=O)n(Cc5ccc(F)cc5)nnc4cc3F)cc12 [US9364482, 70] | 0.7 | 2.7 | 6.1 | 2.9 | 1.2 | 1.2 | 5.6 | 47
7 | CNC(=O)c1c(-c2ccc(F)cc2)oc2cc(N(C)S(C)(=O)=O)c(-c3cc(C)c4nnn(Cc5ccc(F)cc5)c(=O)c4c3)cc12 [US9364482, 74] | 1.8 | 3.3 | 6.1 | 6.8 | 1.4 | 0.8 | 29 | 120
8 | CNC(=O)c1c(-c2ccc(F)cc2)oc2cc(N(C)S(C)(=O)=O)c(-c3ccc4nc(C)n([C@H](COC)c5ccc(F)cc5)c(=O)c4c3)cc12 | 0.6 | 1.1 | 19 | 11 | 1.6 | 2.4 | 21 | 37
9 | CNC(=O)c1c(-c2ccc(F)cc2)oc2cc(N(C)S(C)(=O)=O)c(-c3ccc4nc(C)n([C@@H](COC)c5ccc(F)cc5)c(=O)c4c3)cc12 | 0.5 | 1.1 | 7.5 | 4.1 | 1.1 | 0.6 | 30 | 17
10 | CNC(=O)c1c(-c2ccc(F)cc2)oc2cc(N(C)S(C)(=O)=O)c(-c3cc(OC)c4nnn(Cc5ccc(F)cc5)c(=O)c4c3)cc12 [US9364482, 71] | 0.8 | 1.6 | 3.9 | 3.1 | 0.7 | 0.4 | 4.6 | 12
11 | CNC(=O)c1c(-c2ccc(F)cc2)oc2cc(N(C)S(C)(=O)=O)c(-c3ccc4nc(C)n(Cc5ccc(F)cc5F)c(=O)c4c3)cc12 | 0.5 | 0.8 | 8.3 | 5.4 | 0.9 | 0.7 | 5.4 | 11
12 | CNC(=O)c1c(-c2ccc(F)cc2)oc2cc(N(C)S(C)(=O)=O)c(-c3ccc4nc(C)n(Cc5ccc(F)cc5OC)c(=O)c4c3)cc12 | 1 | 1.5 | 13 | 5 | 1.1 | 2.2 | 44 | 177
13 | CNC(=O)c1c(-c2ccc(F)cc2)oc2cc(N(C)S(C)(=O)=O)c(-c3ccc4nc(CNC(C)=O)n(Cc5ccc(F)cc5)c(=O)c4c3)cc12 [US9364482, 54] | 1.1 | 2.8 | 58 | 5.9 | 1.4 | 6.6 | 32 | 8.3
14 | CNC(=O)c1c(-c2ccc(F)cc2)oc2cc(N(C)S(C)(=O)=O)c(-c3ccc4nnn(C(CO)c5ccc(F)cc5)c(=O)c4c3)cc12 (configuration not stated) | 7.3 | 5.6 | 20 | 6 | 0.9 | 4.5 | 523 | 1130
15 | CNC(=O)c1c(-c2ccc(F)cc2)oc2cc(N(C)S(C)(=O)=O)c(-c3ccc4nc(C)n(Cc5ccc(F)cc5)c(=O)c4c3)cc12 [US9364482, 55] | 0.3 | 1.1 | 4.1 | 1.5 | 0.6 | 0.6 | 2.9 | 7.1
16 | CNC(=O)c1c(-c2ccc(F)cc2)oc2cc(N(C)S(C)(=O)=O)c(-c3ccc4nc(C)n(Cc5ccc(F)cc5)c(=O)c4n3)cc12 [US9364482, 68] | 1.1 | 1.6 | 10 | 2.7 | 1 | 2.9 | 36 | 137
17 | CNC(=O)c1c(-c2ccc(F)cc2)oc2cc(N(C)S(C)(=O)=O)c(-c3cc4c(=O)n(Cc5ccc(F)cc5)nnc4cc3C)cc12 [US9364482, 72] | 2.3 | 4.4 | 6.6 | 4.7 | 1.1 | 1 | 6.2 | 16
18 | CNC(=O)c1c(-c2ccc(F)cc2)oc2cc(N(C)S(C)(=O)=O)c(-c3ccc4ncn(Cc5ccccc5)c(=O)c4c3)cc12 [US9364482, 49] | 3.2 | 3.5 | 18 | 9.4 | 1.2 | 3.5 | 70 | 190
19 | CNC(=O)c1c(-c2ccc(F)cc2)oc2cc(N(C)S(C)(=O)=O)c(-c3ccc4c(n3)C(=O)N(Cc3ccc(F)cc3)CO4)cc12 [US9364482, 6] | 1.6 | 1.3 | 4.6 | 19 | 1.8 | 0.3 | 3.5 | 0.7
20 | CNC(=O)c1c(-c2ccc(F)cc2)oc2cc(N(C)S(C)(=O)=O)c(-c3ccc4nnn(Cc5ccc(F)cn5)c(=O)c4c3)cc12 [US9364482, 48] | 3.3 | 2.7 | 11 | 5.6 | 1.1 | 2.1 | 29 | 446
21 | CNC(=O)c1c(-c2ccc(F)cc2)oc2cc(N(C)S(C)(=O)=O)c(-c3ccc4c(n3)C(=O)N(c3ccc(F)cc3)CO4)cc12 [US9364482, 2] | 19 | 3.8 | 151 | 19 | 1.5 | 8.4 | 452 | 1360
22 | CNC(=O)c1c(-c2ccc(F)cc2)oc2cc(N(C)S(C)(=O)=O)c(-c3ccc4nc(C)n(Cc5ccc(F)cn5)c(=O)c4c3)cc12 | 1.3 | 2.6 | 11 | 4.2 | 1.7 | 1.6 | 36 | 228
23 | CNC(=O)c1c(-c2ccc(F)cc2)oc2cc(N(C)S(C)(=O)=O)c(-c3ccc4nnn(Cc5ccccc5)c(=O)c4c3)cc12 [US9364482, 42] | 2.3 | 3.5 | 8.8 | 6.2 | 1 | 3 | 68 | 335
24 | CNC(=O)c1c(-c2ccc(F)cc2)oc2cc(N(C)S(C)(=O)=O)c(-c3ccc4nnn([C@@H](COC)c5ccc(F)cc5)c(=O)c4c3)cc12 [US9364482, 41] | 4.9 | 5.6 | 16 | 11 | 1.8 | 6 | 292 | 474

Reference: BindingDB's records for doi:10.1016/j.bmcl.2020.127004 (Merck, 2020)
